We go through 10 molecules from US20240124483A1, “Methods for the Treatment of Fibrotic Disease” (SHY Therapeutics, LLC, priority 2021, published 2024).

Assay [1] relates to Smad2/3 phosphorylation. The assay can be described thus: Phospho-Smad2/3 Inhibition Assay in Panc-1 (western blot). The format is cell-based. Particulars: Homo sapiens; 10 μM, 3 hours; PANC-1 stimulated with 10 ng/ml TGF-b1 for 1 hour; read-out: % inh of Smad2/3 phosphorylation in PANC-1. The method, boiled down:
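Serum-starved cells (0.5% FBS overnight) pretreated 3 h at 37 °C with compound at 10 μM or serial dilutions for IC50, in 0.3% DMSO. TGF-b1 10 ng/ml stimulation: 1 h for Panc-1 (human), 20 min for C2C12 (mouse). Phospho-Smad2 (Ser465/467) and phospho-Smad3 (Ser423/425) measured by western blot of lysates.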
In general terms: In western blotting, separated proteins are transferred to a membrane and probed.

Assay [2] concerns MiaPaca2. The assay can be described thus: MiaPaca2 proliferation. The format is cell-based. The conditions noted are these: Homo sapiens, MIA PaCa-2; for inhibition at 10 µM: read-out: % inh of proliferation in MiaPaca2.
The target in assay [3] is KRas G12D mutant (Homo sapiens (Human), UniProt P01116, G12D). The assay can be described thus: Ras GTP Binding Domain Inhibition Assay, KRas G12D mutant. The conditions noted are these: for inhibition at 20 µM: Table 7; for KRas G12D mutant + SOS: % inh. / KRas G12D mutant: % inh.: 20 uM, Table 8. The method, boiled down:
(§1)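 His-tagged KRas proteins coated on nickel plates overnight at 4° C in Tris buffer (pH 7.4 or 7.0, MgCl2, DTT); compounds at 20 μM final (or serial dilutions for IC50) for 3 h at room temperature, ±Sos (residues 556-1049) in final hour. Bound Cy3- or Cy5-GTP (100 nM, 45 min) read by fluorescence after washing.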

For assay [4], the target named is KRas Q61H mutant (Homo sapiens (Human), UniProt P01116, Q61H). The assay can be described thus: Ras GTP Binding Domain Inhibition Assay, KRas Q61H mutant. Particulars: 20 μM. An outline of the steps: as §1
KRas Q61H mutant, sequence (P01116 other isoform, or with tags, fused parts or gaps Q61H): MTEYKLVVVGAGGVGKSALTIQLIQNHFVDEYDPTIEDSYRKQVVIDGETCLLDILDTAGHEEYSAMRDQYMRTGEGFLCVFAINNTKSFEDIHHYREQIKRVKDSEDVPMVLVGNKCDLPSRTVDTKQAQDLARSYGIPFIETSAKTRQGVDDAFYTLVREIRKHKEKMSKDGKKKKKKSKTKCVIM
Assay [5] has as its target Rho-A (Homo sapiens (Human), UniProt P61586). The assay can be described thus: Ras GTP Binding Domain Inhibition Assay, Rho-A. The conditions noted are these: without SOS, read-out: Rho-A: % inh. An outline of the steps:
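Fluorescent GTP binding to plate-captured His-tagged Ras: compound 20 μM (or dilution series for IC50), 3 h RT, ±Sos GEF 10-30 μg/mL last hour; then 100 nM Cy3/Cy5-GTP 45 min RT, wash ×3, read bound label.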

Setting [6] is: + SOS, read-out: KRas G12D mutant + SOS: % inh.
The mark [7] stands for this setting: without SOS, read-out: KRas G12D mutant: % inh.
The mark [8] stands for this setting: + SOS, read-out: KRas Q61H mutant + SOS: % inh.
The mark [9] stands for this setting: without SOS, read-out: KRas Q61H mutant: % inh.

Where two headings read alike, the source gives them in different places. Some results are limits rather than exact numbers.

Rho-A, sequence (P61586 whole entry, species assumed, the tested form may be a part): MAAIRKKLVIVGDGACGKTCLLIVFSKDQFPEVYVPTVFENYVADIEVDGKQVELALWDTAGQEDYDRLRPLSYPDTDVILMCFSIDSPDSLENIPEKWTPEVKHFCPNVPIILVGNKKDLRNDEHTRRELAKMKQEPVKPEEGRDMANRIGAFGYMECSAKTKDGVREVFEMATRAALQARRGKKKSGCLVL
KRas G12D mutant, sequence (P01116 other isoform, or with tags, fused parts or gaps G12D): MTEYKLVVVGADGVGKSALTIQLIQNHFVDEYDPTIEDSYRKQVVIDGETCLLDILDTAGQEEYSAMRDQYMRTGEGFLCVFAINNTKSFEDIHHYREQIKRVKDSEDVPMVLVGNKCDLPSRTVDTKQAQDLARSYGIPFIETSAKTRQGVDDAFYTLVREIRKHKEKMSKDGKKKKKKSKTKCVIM

As to `COCCCOc1nc(-c2nccn2C)nc2sc(-c3ccn(C(C)C)n3)c(-c3ccccc3)c12` [Compound 37, 6-(1-Isopropyl-1H-pyrazol-3-yl)-4-(3-methoxypropoxy)-2-(1-methyl-1H-imidazol-2-yl)-5-phenylthieno[2,3-d]pyrimidine], the inhibition at 10 µM in assay [1] was 0%; in assay [2], 1 to 25%. Besides, the IC50 in assay [2] was above 10 µM. Besides, the inhibition at 20 µM in assay [3] (setting [6]), in assay [3] (setting [7]), in assay [4] (setting [8]), in assay [4] (setting [9]) and in assay [5] was 0% each time. Besides, in assay [3] (+ SOS), the “KRas G12D mutant + SOS: % inh.” value is given as 0 (0 = 0% inhibition). The “KRas G12D mutant: % inh.” value in assay [3] (without SOS) is on record as 0 (0 = 0% inhibition).

On to `COCCn1ccc(-c2sc3nc(-c4nccn4C)nc(N[C@@H]4CC[C@H](OC)C4)c3c2C)n1` (racemic) [Compound 39, rac-N-((1R,3S)-3-Methoxycyclopentyl)-6-(1-(2-methoxyethyl)-1H-pyrazol-3-yl)-5-methyl-2-(1-methyl-1H-imidazol-2-yl)thieno[2,3-d]pyrimidin-4-amine], for which the inhibition at 10 µM was 0% in assay [1] and 76 to 100% in assay [2]. The same molecule yielded an IC50 in assay [2] of 5 to 10 µM. Moreover, the inhibition at 20 µM is 76 to 100% in assay [3] (setting [6]); 46 to 75% in assay [3] (setting [7]); 76 to 100% in assay [4] (setting [8]); 76 to 100% in assay [4] (setting [9]); 46 to 75% in assay [5]. In addition, in assay [3] (+ SOS), the “KRas G12D mutant + SOS: % inh.” value was “D (D = 76-100% inhibition)”. For the same molecule, the “KRas G12D mutant: % inh.” value in assay [3] (without SOS) is listed as “C (C = 46-75% inhibition)”.

Take `Cc1c(-c2ccn(C(C)C)n2)sc2nc(-c3nccn3C)nc(NCC3CN(C)CCO3)c12` (racemic) [Compound 25, rac-6-(1-Isopropyl-1H-pyrazol-3-yl)-5-methyl-2-(1-methyl-1H-imidazol-2-yl)-N-((4-methylmorpholin-2-yl)methyl)thieno[2,3-d]pyrimidin-4-amine]: the inhibition at 10 µM is 0% in assay [1] and 46 to 75% in assay [2]. The same molecule displayed an IC50 in assay [2] of 5 to 10 µM. Moreover, the inhibition at 20 µM in assay [3] (setting [6]), in assay [3] (setting [7]), in assay [4] (setting [8]), in assay [4] (setting [9]) and in assay [5] was 76 to 100% in each case. For the same molecule, in assay [3] (+ SOS), the “KRas G12D mutant + SOS: % inh.” value is recorded as “D (D = 76-100% inhibition)”. In assay [3] (without SOS), the “KRas G12D mutant: % inh.” value is “D (D = 76-100% inhibition)”.

For `Cc1c(-c2ccn(C(C)C)n2)sc2nc(-c3nccn3C)nc(NCCN3CCOCC3)c12` [Compound 22, 6-(1-Isopropyl-1H-pyrazol-3-yl)-5-methyl-2-(1-methyl-1H-imidazol-2-yl)-N-(2-morpholinoethyl)thieno[2,3-d]pyrimidin-4-amine], the values for the inhibition at 10 µM in assay [1] and in assay [2] were 0% and 76 to 100%, respectively. Moreover, the IC50 in assay [2] lay in the range of 5 to 10 µM. In addition, the inhibition at 20 µM in assay [3] (setting [6]), in assay [3] (setting [7]), in assay [4] (setting [8]), in assay [4] (setting [9]) and in assay [5] was 76 to 100% in each case. Further, the “KRas G12D mutant + SOS: % inh.” value in assay [3] (+ SOS) was “D (D = 76-100% inhibition)”. For the same molecule, in assay [3] (without SOS), the “KRas G12D mutant: % inh.” value is recorded as “D (D = 76-100% inhibition)”.

Regarding `COc1cc(-c2sc3nc(-c4nccn4C)nc(N[C@H]4C[C@H](OC)C4)c3c2-c2ccccc2)ccn1` [Compound 46, N-((1r,3r)-3-Methoxycyclobutyl)-6-(2-methoxypyridin-4-yl)-2-(1-methyl-1H-imidazol-2-yl)-5-phenylthieno[2,3-d]pyrimidin-4-amine], the inhibition at 10 µM in assay [1] and in assay [2] was 76 to 100% throughout. This molecule also showed an IC50 in assay [2] of 1 to 4.99 µM. Also, the inhibition at 20 µM in assay [3] (setting [6]) was 46 to 75%; in assay [3] (setting [7]), 46 to 75%; in assay [4] (setting [8]), 76 to 100%; in assay [4] (setting [9]), 76 to 100%; in assay [5], 46 to 75%. Also, the “KRas G12D mutant + SOS: % inh.” value in assay [3] (+ SOS) is “C (C = 46-75% inhibition)”. In addition, in assay [3] (without SOS), the “KRas G12D mutant: % inh.” value was “C (C = 46-75% inhibition)”.

For the molecule `COc1cccc(Nc2nc(-c3nccn3C)nc3sc(-c4ccn(C(C)C)n4)c(C)c23)c1` [Compound 17, 6-(1-Isopropyl-1H-pyrazol-3-yl)-N-(3-methoxyphenyl)-5-methyl-2-(1-methyl-1H-imidazol-2-yl)thieno[2,3-d]pyrimidin-4-amine], the results for the inhibition at 10 µM in assay [1] and in assay [2] were 46 to 75% and 76 to 100%, respectively. In assay [2], this molecule registered an IC50 of 5 to 10 µM. Moreover, the inhibition at 20 µM in assay [3] (setting [6]) is 46 to 75%; in assay [3] (setting [7]), 46 to 75%; in assay [4] (setting [8]), 46 to 75%; in assay [4] (setting [9]), 26 to 45%; in assay [5] it was 46 to 75%. Also, in assay [3] (+ SOS), the “KRas G12D mutant + SOS: % inh.” value is listed as “C (C = 46-75% inhibition)”. Further, the “KRas G12D mutant: % inh.” value in assay [3] (without SOS) was “C (C = 46-75% inhibition)”.

Consider `COCCCCn1c(-c2nccn2C)nc2sc(-c3ccn(C(C)C)n3)c(C)c2c1=O` [Compound 33, 6-(1-Isopropyl-1H-pyrazol-3-yl)-3-(4-methoxybutyl)-5-methyl-2-(1-methyl-1H-imidazol-2-yl)thieno[2,3-d]pyrimidin-4(3H)-one], for which the inhibition at 10 µM in assay [1] and in assay [2] was 0% throughout. The molecule further returned an IC50 in assay [2] above 10 µM. Also, the inhibition at 20 µM in assay [3] (setting [6]) was 0%; in assay [3] (setting [7]) it was 0%; in assay [4] (setting [8]), 1 to 25%; in assay [4] (setting [9]), 0%; in assay [5] it was 0%. Further, the “KRas G12D mutant + SOS: % inh.” value in assay [3] (+ SOS) is listed as 0 (0 = 0% inhibition). Also, the “KRas G12D mutant: % inh.” value in assay [3] (without SOS) is given as 0 (0 = 0% inhibition).

As to `COCCOCCNc1nc(-c2nccn2C)nc2sc(-c3ccn(C(C)C)n3)c(C)c12` [Compound 21, 6-(1-Isopropyl-1H-pyrazol-3-yl)-N-(2-(2-methoxyethoxy)ethyl)-5-methyl-2-(1-methyl-1H-imidazol-2-yl)thieno[2,3-d]pyrimidin-4-amine], the inhibition at 10 µM in assay [1] is 0%; in assay [2], 76 to 100%. The molecule also had an IC50 in assay [2] of 5 to 10 µM. Further, the inhibition at 20 µM in assay [3] (setting [6]), in assay [3] (setting [7]), in assay [4] (setting [8]), in assay [4] (setting [9]) and in assay [5] was 76 to 100% each time. Further, in assay [3] (+ SOS), the “KRas G12D mutant + SOS: % inh.” value is on record as “D (D = 76-100% inhibition)”. In assay [3] (without SOS), the “KRas G12D mutant: % inh.” value was “D (D = 76-100% inhibition)”.

Regarding `COCC1(OC)CCN(c2nc(-c3nccn3C)nc3sc(-c4ccn(C(C)C)n4)c(C)c23)C1` (racemic) [Compound 27, rac-6-(1-Isopropyl-1H-pyrazol-3-yl)-4-(3-methoxy-3-(methoxymethyl)pyrrolidin-1-yl)-5-methyl-2-(1-methyl-1H-imidazol-2-yl)thieno[2,3-d]pyrimidine], the inhibition at 10 µM in assay [1] was 0%; in assay [2], 76 to 100%. Further, the IC50 in assay [2] lay in the range of 5 to 10 µM. Moreover, the inhibition at 20 µM in assay [3] (setting [6]) lay within 76 to 100%; in assay [3] (setting [7]), 46 to 75%; in assay [4] (setting [8]) it was 76 to 100%; in assay [4] (setting [9]), 46 to 75%; in assay [5] it was 46 to 75%. Also, in assay [3] (+ SOS), the “KRas G12D mutant + SOS: % inh.” value was “D (D = 76-100% inhibition)”. Besides, in assay [3] (without SOS), the “KRas G12D mutant: % inh.” value is listed as “C (C = 46-75% inhibition)”.

For the molecule `COc1cc(-c2sc3nc(-c4nccn4C)nc(N[C@@H]4CC[C@@H](OC)C4)c3c2-c2ccccc2)ccn1` (racemic) [Compound 47, N-((1R,3R)-3-Methoxycyclopentyl)-6-(2-methoxypyridin-4-yl)-2-(1-methyl-1H-imidazol-2-yl)-5-phenylthieno[2,3-d]pyrimidin-4-amine], the inhibition at 10 µM in assay [1] and in assay [2] was 76 to 100% throughout. Besides, the IC50 in assay [2] is below 1 µM. The inhibition at 20 µM in assay [3] (setting [6]) fell in the range of 76 to 100%; in assay [3] (setting [7]), 46 to 75%; in assay [4] (setting [8]) it was 76 to 100%; in assay [4] (setting [9]), 46 to 75%; in assay [5], 46 to 75%. Moreover, in assay [3] (+ SOS), the “KRas G12D mutant + SOS: % inh.” value was “D (D = 76-100% inhibition)”. In assay [3] (without SOS), the “KRas G12D mutant: % inh.” value is on record as “C (C = 46-75% inhibition)”.

A word on the IC50: it is the midpoint of a concentration-inhibition curve. Read a low IC50 as inhibition by little substance.
